# What was measured:
# U937 xenografts = assay: In vivo tumor growth, U937 xenografts; parameters: species or system athymic CD1 nude mice
# Procedure: (§1) All procedures involving mice and their care were authorized and certified by the decree no. 67/97A of the Italian Minister of Health and protocol 2560/97 of the Rome Health Service Unit (ASL RMB). Regina Elena National Cancer Institute approved all the procedures involving animals. 5 x 10^6 U937 (in 50% Matrigel, Corning, NY, USA) or A375 cells were subcutaneously injected in the right flank of 6-8-week-old female immunodeficient athymic CD1 nude mice. IS21 was dissolved in 10% DMSO, 30% PEG400 and 60% NaCl (vehicle). Intraperitoneal treatment of vehicle or IS21 (8 mice for each group) every 24 h started when tumors reached the palpability (6 days for U937 and 7 days for A375 cells). […] Animals were observed daily, weighted two times/week and tumor volume (mm^3) calculated as length × width^2 × π/6. At the end of the treatment the tumors were collected and weighed.
# Based on pharmacokinetic analysis, we next evaluated the effect of IS21 on in vivo tumor growth of leukemic and melanoma derived xenografts. To this aim, U937 were injected subcutaneously and treated for two weeks with vehicle or with IS21 (70 mg/kg or 100 mg/kg, 5 days/week).
# Figure 9 Analysis in vivo of the effect of IS21 on both leukemia and melanoma models. Analysis of in vivo tumor growth in nude mice injected with (A) U937 and (B) A375 cells and treated with vehicle or with IS21 at the indicated concentrations for (A) two or (B) three weeks. Experiments were repeated twice. * p < 0.05, *** p < 0.0002, **** p < 0.0001.
# A375 melanoma xenografts = assay: In vivo tumor growth, A375 xenografts; conditions: i.p. 100 mg/kg, 5 days/week
# Procedure: as §1
# In particular, mice injected with A375 melanoma cells were treated with vehicle or with IS21 (100 mg/kg, 5 days/week) for three weeks.
# Experiments were repeated
# 426 twice. 4 animals/group. * p < 0.01, ** p < 0.001, *** p < 0.0001. (B) Representative images of
# 427 explanted tumors of two independent experiments. The scale bar represents 1 cm. (C) Analysis of
# (D) Anal ysis of mice weight after the in vivo ex periment perform ed
# 430 as reported in (A). ( A,C, D) D ata are report ed as mean ± SD of two indep endent ex periments. […]
smiles,measurement,setting,value
CCCCCOc1ccc(C2/C(=C(\O)c3ccc4c(c3)CC(C)O4)C(=O)C(=O)N2c2nnc(SCc3ccc(Cl)cc3)s2)cc1OCC (stereo not shown) [IS21],delay of tumor growth,"U937 xenografts; U937, 100 mg/kg until day 22, compared with control or 70 mg/kg",about 11 days
same,growth of U937 xenografts,"U937 xenografts; i.p. 70 mg/kg or 100 mg/kg, 5 days/week, two weeks",reduced significantly
same,day after cell injection from which U937 xenograft growth is significantly reduced,"U937 xenografts; i.p. 70 mg/kg, 5 days/week, two weeks",19 days
same,day after cell injection from which U937 xenograft growth is significantly reduced,"U937 xenografts; i.p. 100 mg/kg, 5 days/week, two weeks",16 days
same,day after cell injection from which A375 tumor growth is reduced,A375 melanoma xenografts; three weeks,22 days
same,in vivo tumor growth of A375,A375 melanoma xenografts; three weeks,strongly reduced
same,"tolerability of treatment (weight loss, diet consumption, postural and behavioral changes)",A375 melanoma xenografts; tumor-bearing nude mice,highly tolerated
